Measurements from patent US7648993B2, “Methods of treating disorders with Group I mGluR antagonists” (Brown University, priority 2001, dated 2010).

What was measured:
[1] = tested on: hippocampal area CA1 slices; experiment: Field potential (FP) recordings in area CA1 of rat hippocampal slices (DHPG-LTD); type: cell-based, Long Evans rats; details: for FP, % of pre-DHPG baseline (synaptic responses stabilized at a depressed level): after drug wash out
Procedure: (§1) All animals were used in accordance with procedures approved by the Brown University Institutional Animal Care and Use Committee. Hippocampal slices were prepared from postnatal day 21-30 (P21-30) Long Evans rats (Charles River, Cambridge, Mass.) and mGluR5 knockout mice (Lu et al. 1997) as described previously (Huber et al. 2000). For most experiments, CA3 was removed immediately after sectioning. Slices recovered for 1-2 h at room temperature (rats) or at 30° C. (mice) in artificial cerebrospinal fluid (ACSF) containing (in mM) 124 NaCl, 5 KCl, 1.25 NaH2PO4, 26 NaHCO3, 1 MgCl2, 2 CaCl2, and 10 dextrose, saturated with 95% O2-5% CO2. For recording, slices were placed in a submersion recording chamber and perfused with 30° C. ACSF at a rate of 2 ml/min.
Synaptically evoked field potentials (FPs) were recorded from area CA1 as described previously. Sharp microelectrode and whole cell voltage-clamp recordings were made using Axoclamp 2B and Axopatch 1D amplifiers (Axon Instruments), respectively. Sharp electrodes (80-120 M Ω) were filled with 3 M K-acetate and 10 mM KCl; patch pipettes (3-7 M Ω) were filled with (in mM) 134 K-gluconate, 6 KCl, 4 NaCl, 10 HEPES, 0.2 EGTA, 4 MgATP, 0.3 TrisGTP, and 14 phosphocreatine. The pH of the internal solution was adjusted to 7.25 with KOH, and the osmolarity was adjusted to 300 mOsm with H2O or sucrose. Only experiments in which there was less than a 15% change in series resistance were included in the analysis. Waveforms were filtered at 2 kHz and acquired and digitized at 10 kHz on a PC using Experimenter's Workbench (DataWave Systems, Boulder, Colo.).
Baseline responses were collected every 10-30 s using a stimulation intensity (10-30 μA; 0.2 ms) yielding 50-60% of the maximal response. Experiments in which there was a>5% drift in the response magnitude during the 20-min baseline period before DHPG or LFS were excluded from further analysis. All experiments with mGluR5 KO mice used wildtype littermates as controls and were performed blind to the genotype, later determined by Therion (Troy, N.Y.). LFS consisted of 900 pulses at 1 Hz. PP-LFS consisted of 900 pairs of stimuli (50-ms interstimulus interval) delivered at 1 Hz. In saturation experiments, stimulus duration was increased from 0.2 to 0.4 ms during PP-LFS.
(§2) The group data were analyzed as follows: 1) the initial slopes of the FPs and excitatory postsynaptic potentials (EPSPs), or the amplitude of the excitatory postsynaptic currents (EPSCs), for each experiment were expressed as percentages of the preconditioning or DHPG baseline average, 2) the time scale in each experiment was converted to time from the onset of conditioning or DHPG, and 3) the time-matched, normalized data were averaged across experiments and expressed in the text and figures as the means ±SE. Significant differences between groups were determined using an independent t-test or ANOVA performed on a 5-min average taken 1 h after LFS or DHPG application.
R,S-DHPG and D-2-amino-5-phosphonopentanoic acid (D-AP5) was purchased from Tocris (St. Louis, Mo.); all other chemicals were from Sigma Chemical (St Louis, Mo.). DHPG was prepared as a 100 times stock in H2O, aliquoted and stored at −20° C. Fresh stocks were made once a week. A 10 times stock of AP5 was prepared in ACSF and stored at 4° C. These stocks were diluted in ACSF to achieve their final concentrations. Picrotoxin was dissolved directly into ACSF immediately before use.

[2] = tested on: hippocampal area CA1 slices; experiment: Sharp electrode EPSP and whole cell voltage-clamp EPSC recordings in hippocampal slices; type: cell-based, Long Evans rats; details: DHPG 50 μM, 5 min
Procedure: as §1
Synaptically evoked field potentials (FPs) were recorded from area CA1 as described previously. […]
as §2, with “Significant differences between groups were determined using an independent t-test or ANOVA performed on a 5-min average taken 1 h after LFS or DHPG application.” left out

[3] = tested on: cultured hippocampal cells; experiment: AMPAR-mediated mEPSC recordings; type: cell-based, rat; details: for mEPSC inter-event interval, % of baseline: 5 min; for mEPSC amplitude, % baseline: not statistically significant
[4] = tested on: CA1 neurons in hippocampal slices; experiment: Synaptically evoked NMDAR-mediated EPSCs in CA1 neurons of hippocampal slices; type: cell-based, Long Evans rats; details: 5 min, 30 minutes after treatment, +40 mV
Procedure: The loss of synaptic NR1 clusters clearly distinguishes the effect of DHPG from other treatments that selectively affect AMPARs^2,17-19.
Hippocampal slices were prepared from P21-30 Long Evans rats (Charles River, Cambridge, Mass.) as described previously^13,14. Slices recovered for 1-2 h at room temperature in artificial cerebrospinal fluid (ACSF) containing 124 mM NaCl, 5 mM KCl, 1.25 mM NaH2PO4, 26 mM NaHCO3, 1 mM MgCl2, 2 mM CaCl2, 10 mM dextrose, saturated with 95% O2, 5% CO2. For recording, slices were placed in a submersion recording chamber and perfused with 30° C. ACSF at a rate of 2 ml/min.
Synaptically evoked-NMDAR-mediated EPSCs were recorded from area CA1 as described previously for visual cortex^20. NMDA-evoked currents were examined by picospritzing 1 mM NMDA (made in ACSF), applied for 3.5-12.5 ms, near the proximal portion of the primary apical dendrite. NMDA-evoked currents were elicited once every two minutes. Stimulation intensity or picospritz pulse duration/pressure were adjusted to evoke an inward current with amplitude of 50 pA or greater.

NC(C(=O)O)c1cc(O)cc(O)c1 (racemic) [DHPG, (RS)-3,5-dihydroxyphenylglycine]
FP slope, % of pre-DHPG baseline after saturation of mGluR-dependent LTD ([1]; DHPG 50 μM applied after PP-LFS in D-AP5 50 μM): 100±5%
FP, % of pre-DHPG baseline (synaptic responses stabilized at a depressed level) ([1]; DHPG 50 μM, 5 min): 69±5%
DHPG-LTD, two-pathway experiment, unstimulated input ([1]; DHPG 50 μM, 5 min, input not stimulated during DHPG): 68±5%
DHPG-LTD, two-pathway experiment, stimulated input ([1]; DHPG 50 μM, 5 min, input stimulated during DHPG): 62±4%
magnitude of DHPG-LTD, interleaved control slices without AP5 ([1]; DHPG 50 μM, 5 min, no AP5): 85±3%
FP, % of pre-DHPG baseline (synaptic responses stabilized at a depressed level) ([1]; DHPG 100 μM, 5 min): 48±1%
FP slope, % of pre-DHPG baseline after saturation of NMDAR-dependent LTD ([1]; DHPG applied after repeated episodes of LFS): 81±5%
EPSP slope after DHPG (LTD), % of baseline ([2]; sharp electrode recording): 61±5%
EPSC amplitude after DHPG (LTD), % of baseline ([2]; whole cell voltage clamp at −70 mV): 69±5%
mEPSC inter-event interval, % of baseline ([3]; 15 min after DHPG 50 μM): 315%
mEPSC amplitude, % baseline ([3]; 15 minutes following DHPG): 94.2%
mEPSC inter-event interval, % of baseline ([3]; 60 minutes after DHPG 50 μM): 319%
mEPSC amplitude, % baseline ([3]; 60 minutes following DHPG): 92.2%
NMDAR-EPSC amplitude as percent of baseline ([4]; DHPG 50 μM): 70.7±2.9% of baseline
NMDAR-EPSC amplitude as percent of baseline ([4]; DHPG 100 μM): 57.7±1.0% of baseline
